Assay results: ChEMBL document CHEMBL4673237, “Annulation reaction enables the identification of an exocyclic amide tricyclic chemotype as retinoic acid Receptor-Related orphan receptor gamma (RORγ/RORc) inverse agonists” (Bioorg Med Chem Lett, 2020)

How the values were obtained:
[1] = Metabolic stability in mouse liver microsomes assessed as parent compound remaining; type: ADME, Microsome
[2] = Metabolic stability in human liver microsomes assessed as parent compound remaining; type: ADME, Microsome
[3] = Protein binding in human serum assessed as unbound fraction; type: ADME, cell-free
Cytochrome P450 2C8 = biological target: T1, Cytochrome P450 2C8 (Homo sapiens, UniProt P10632); assay: Inhibition of recombinant CYP2C8 (unknown origin); type: ADME; details: recombinant enzyme, dose >10 µM
T1 sequence (P10632 whole entry): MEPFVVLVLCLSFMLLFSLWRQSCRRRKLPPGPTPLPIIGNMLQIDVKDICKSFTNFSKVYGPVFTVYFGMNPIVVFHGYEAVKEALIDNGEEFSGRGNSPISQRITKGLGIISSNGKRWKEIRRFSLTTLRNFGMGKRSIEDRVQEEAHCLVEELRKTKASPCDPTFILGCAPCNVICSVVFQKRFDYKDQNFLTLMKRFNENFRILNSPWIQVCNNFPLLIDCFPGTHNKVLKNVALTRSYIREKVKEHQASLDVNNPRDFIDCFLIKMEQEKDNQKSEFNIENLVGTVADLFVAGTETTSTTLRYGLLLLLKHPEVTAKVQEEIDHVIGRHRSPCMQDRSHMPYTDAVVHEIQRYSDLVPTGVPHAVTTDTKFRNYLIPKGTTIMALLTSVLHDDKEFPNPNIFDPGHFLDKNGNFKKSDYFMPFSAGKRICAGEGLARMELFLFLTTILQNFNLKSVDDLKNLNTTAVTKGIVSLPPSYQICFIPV

Cytochrome P450 2D6 = Cytochrome P450 2D6 (Homo sapiens, UniProt P10635); assay: Inhibition of recombinant CYP2D6 (unknown origin); type: ADME; details: recombinant enzyme, dose >10 µM
Sequence of Cytochrome P450 2D6 (P10635 whole entry): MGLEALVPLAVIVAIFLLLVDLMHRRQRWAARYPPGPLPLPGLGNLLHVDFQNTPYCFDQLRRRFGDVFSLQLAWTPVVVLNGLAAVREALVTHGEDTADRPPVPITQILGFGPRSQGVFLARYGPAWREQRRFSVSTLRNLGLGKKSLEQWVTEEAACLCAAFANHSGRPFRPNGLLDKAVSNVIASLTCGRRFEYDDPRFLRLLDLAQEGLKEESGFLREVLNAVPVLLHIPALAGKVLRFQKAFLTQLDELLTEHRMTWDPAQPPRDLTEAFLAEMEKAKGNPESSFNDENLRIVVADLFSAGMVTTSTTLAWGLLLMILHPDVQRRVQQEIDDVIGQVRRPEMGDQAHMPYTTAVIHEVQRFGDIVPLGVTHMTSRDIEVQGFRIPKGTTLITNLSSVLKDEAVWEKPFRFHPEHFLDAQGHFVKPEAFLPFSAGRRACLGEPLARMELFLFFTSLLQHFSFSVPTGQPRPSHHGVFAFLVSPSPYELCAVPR

[4] = Permeability from apical side to basolateral side in human Caco-2 cells; type: ADME, cell-based; details: read-out: permeability
Cytochrome P450 2C9 = Cytochrome P450 2C9 (Homo sapiens, UniProt P11712); assay: Inhibition of recombinant CYP2C9 (unknown origin); type: ADME; details: recombinant enzyme, dose >10 µM
Sequence of Cytochrome P450 2C9 (P11712 whole entry): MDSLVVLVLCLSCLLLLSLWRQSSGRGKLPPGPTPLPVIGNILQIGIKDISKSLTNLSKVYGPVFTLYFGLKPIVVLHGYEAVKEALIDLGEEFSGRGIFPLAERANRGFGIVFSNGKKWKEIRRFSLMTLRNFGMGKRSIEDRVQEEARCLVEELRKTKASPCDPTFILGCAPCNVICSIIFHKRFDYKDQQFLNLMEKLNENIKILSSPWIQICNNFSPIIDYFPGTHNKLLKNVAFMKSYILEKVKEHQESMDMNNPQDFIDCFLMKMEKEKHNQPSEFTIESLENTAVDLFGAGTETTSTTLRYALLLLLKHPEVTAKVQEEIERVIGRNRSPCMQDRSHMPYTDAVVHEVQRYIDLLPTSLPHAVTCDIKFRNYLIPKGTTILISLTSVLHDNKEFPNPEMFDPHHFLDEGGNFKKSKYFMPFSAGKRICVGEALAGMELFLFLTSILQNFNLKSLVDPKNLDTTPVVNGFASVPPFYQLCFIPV

Cytochrome P450 2C19 = Cytochrome P450 2C19 (Homo sapiens, UniProt P33261); assay: Inhibition of recombinant CYP2C19 (unknown origin); type: ADME; details: recombinant enzyme, dose >10 µM
Sequence of Cytochrome P450 2C19 (P33261 whole entry): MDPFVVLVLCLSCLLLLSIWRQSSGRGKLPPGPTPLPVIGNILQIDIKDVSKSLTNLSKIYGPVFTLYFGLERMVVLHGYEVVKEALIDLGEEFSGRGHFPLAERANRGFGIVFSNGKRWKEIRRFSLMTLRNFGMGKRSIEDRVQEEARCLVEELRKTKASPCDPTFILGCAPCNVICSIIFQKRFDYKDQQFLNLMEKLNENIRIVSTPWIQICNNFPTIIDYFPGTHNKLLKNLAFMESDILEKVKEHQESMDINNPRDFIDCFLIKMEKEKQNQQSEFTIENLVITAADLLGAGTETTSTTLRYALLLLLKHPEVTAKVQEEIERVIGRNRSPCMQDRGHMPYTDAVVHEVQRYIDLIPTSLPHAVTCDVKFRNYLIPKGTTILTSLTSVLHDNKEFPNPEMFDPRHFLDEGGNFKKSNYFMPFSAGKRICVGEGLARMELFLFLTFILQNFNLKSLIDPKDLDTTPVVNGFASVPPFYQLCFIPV

[5] = Protein binding in mouse serum assessed as unbound fraction; type: ADME, cell-free
Cytochrome P450 1A2 = biological target: T2, Cytochrome P450 1A2 (Homo sapiens, UniProt P05177); assay: Inhibition of recombinant CYP1A2 (unknown origin); type: ADME; details: recombinant enzyme, dose >10 µM
T2 sequence (P05177 whole entry): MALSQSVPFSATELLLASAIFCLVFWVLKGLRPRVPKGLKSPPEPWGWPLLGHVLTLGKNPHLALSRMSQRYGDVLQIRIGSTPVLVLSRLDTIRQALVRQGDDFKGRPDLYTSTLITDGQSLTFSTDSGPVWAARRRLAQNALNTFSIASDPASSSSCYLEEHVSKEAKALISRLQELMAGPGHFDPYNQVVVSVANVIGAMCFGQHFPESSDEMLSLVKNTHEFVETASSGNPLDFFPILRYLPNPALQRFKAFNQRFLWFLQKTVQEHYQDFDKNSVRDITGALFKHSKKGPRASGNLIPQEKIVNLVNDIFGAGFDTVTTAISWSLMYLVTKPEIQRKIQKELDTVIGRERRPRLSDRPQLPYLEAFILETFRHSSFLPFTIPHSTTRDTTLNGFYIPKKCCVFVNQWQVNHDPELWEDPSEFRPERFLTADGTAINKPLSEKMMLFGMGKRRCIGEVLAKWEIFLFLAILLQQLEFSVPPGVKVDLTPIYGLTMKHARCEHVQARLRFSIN

[6] = Metabolic stability in human liver microsomes assessed as half life
[7] = biological target: T3, Nuclear receptor subfamily 1 group I member 2 (Homo sapiens, UniProt O75469); assay: Inhibition of PXR (unknown origin); details: dose >50 µM
T3 sequence (O75469 whole entry): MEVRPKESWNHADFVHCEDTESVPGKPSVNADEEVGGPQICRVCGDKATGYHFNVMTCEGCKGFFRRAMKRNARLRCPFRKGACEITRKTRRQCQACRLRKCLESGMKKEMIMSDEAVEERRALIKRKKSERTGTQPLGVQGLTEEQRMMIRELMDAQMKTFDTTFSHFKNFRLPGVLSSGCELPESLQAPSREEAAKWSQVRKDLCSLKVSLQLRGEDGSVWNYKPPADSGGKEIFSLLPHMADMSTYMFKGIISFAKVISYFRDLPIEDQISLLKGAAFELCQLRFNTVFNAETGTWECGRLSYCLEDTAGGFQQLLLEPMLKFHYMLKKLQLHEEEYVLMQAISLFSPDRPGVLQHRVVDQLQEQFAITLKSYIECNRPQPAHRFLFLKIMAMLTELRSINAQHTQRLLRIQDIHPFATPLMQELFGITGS

[8] = Metabolic stability in mouse liver microsomes assessed as half life

SMILES | Stabilty [1] | Stabilty [2] | other results
C[C@H](CO)NC(=O)[C@@H]1CC[C@@]2(S(=O)(=O)c3ccc(F)cc3)c3ccc(C(F)(C(F)(F)F)C(F)(F)F)cc3CC[C@@H]12 | 39% | 46% | 
O=C(NCC1(O)CCCC1)[C@@H]1CC[C@@]2(S(=O)(=O)c3ccc(F)cc3)c3ccc(C(F)(C(F)(F)F)C(F)(F)F)cc3CC[C@@H]12 | 41% | 22% | 
O=C(NCCO)[C@@H]1CC[C@@]2(S(=O)(=O)c3ccc(F)cc3)c3ccc(C(F)(C(F)(F)F)C(F)(F)F)cc3CC[C@@H]12 | 78% | 86% | 
CC(C)(O)CNC(=O)[C@@H]1CC[C@@]2(S(=O)(=O)c3ccc(F)cc3)c3ccc(C(F)(C(F)(F)F)C(F)(F)F)cc3CC[C@@H]12 | 77% | 99% | Fu [3]: 0.5%; INH (Cytochrome P450 2C8): > 10 µM; INH (Cytochrome P450 2D6): > 10 µM; Papp A→B [4]: 15 ×10⁻⁶ cm/s; INH (Cytochrome P450 2C9): > 10 µM; INH (Cytochrome P450 2C19): > 10 µM; Fu [5]: 0.4%; INH (Cytochrome P450 1A2): > 10 µM; half-life [6]: 1.35 h; INH [7]: > 50 µM; half-life [8]: 0.683 h
C[C@@H](O)CNC(=O)[C@@H]1CC[C@@]2(S(=O)(=O)c3ccc(F)cc3)c3ccc(C(F)(C(F)(F)F)C(F)(F)F)cc3CC[C@@H]12 | 51% | 56% | 
O=C(NC[C@H](O)C(F)(F)F)[C@@H]1CC[C@@]2(S(=O)(=O)c3ccc(F)cc3)c3ccc(C(F)(C(F)(F)F)C(F)(F)F)cc3CC[C@@H]12 | 100% | 100% | 
C[C@H](O)CNC(=O)[C@@H]1CC[C@@]2(S(=O)(=O)c3ccc(F)cc3)c3ccc(C(F)(C(F)(F)F)C(F)(F)F)cc3CC[C@@H]12 | 41% | 34% | 
O=C(NCC1(O)CCCCC1)[C@@H]1CC[C@@]2(S(=O)(=O)c3ccc(F)cc3)c3ccc(C(F)(C(F)(F)F)C(F)(F)F)cc3CC[C@@H]12 | 38% | 5% | 
O=C(NCC1(O)CC1)[C@@H]1CC[C@@]2(S(=O)(=O)c3ccc(F)cc3)c3ccc(C(F)(C(F)(F)F)C(F)(F)F)cc3CC[C@@H]12 | 26% | 19% | 
CC(C)(O)C(C)(C)NC(=O)[C@@H]1CC[C@@]2(S(=O)(=O)c3ccc(F)cc3)c3ccc(C(F)(C(F)(F)F)C(F)(F)F)cc3CC[C@@H]12 | 14% | 75% | 
C[C@@H](CO)NC(=O)[C@@H]1CC[C@@]2(S(=O)(=O)c3ccc(F)cc3)c3ccc(C(F)(C(F)(F)F)C(F)(F)F)cc3CC[C@@H]12 | 55% | 53% | 
O=C(NCC1(O)CCC1)[C@@H]1CC[C@@]2(S(=O)(=O)c3ccc(F)cc3)c3ccc(C(F)(C(F)(F)F)C(F)(F)F)cc3CC[C@@H]12 | 57% | 74% | 
